Laboratory results: PubChem BioAssay AID2060504 (Molecular Pharmacology Branch, DTP, NCI, 2025)
Values belong to the compound of their own block, whether it stands above or below them.

Tested on: 636577-100-R-J1-PDC complex spheroid viability
Assay: Anticancer human tumor 636577-100-R-J1-PDC patient-derived endometrial adenocarcinoma cell line growth inhibition [GQUAD]
Details: for IC50: curve of first compound; for viability, T/C: stronger effect = lower value
Procedure, shortened: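 Tumor cells were grown as complex spheroids with HUVEC endothelial cells and mesenchymal stem cells as stroma. G-quadruplex stabilizers were combined with targeted agents over half-log dilutions from near the clinical Cmax, or from 10 microM.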

[1] = second compound 0.0316 µM, first compound 0.0316 µM
[2] = second compound 0.0316 µM, first compound 0.1 µM
[3] = second compound 0.0316 µM, first compound 0.316 µM
[4] = second compound 0.0316 µM, first compound 1 µM
[5] = second compound 0.0316 µM, first compound 3.16 µM
[6] = second compound 0.0316 µM, first compound 10 µM
[7] = second compound 0.1 µM, first compound 0.0316 µM
[8] = second compound 0.1 µM, first compound 0.1 µM
[9] = second compound 0.1 µM, first compound 0.316 µM
[10] = second compound 0.1 µM, first compound 1 µM
[11] = second compound 0.1 µM, first compound 3.16 µM
[12] = second compound 0.1 µM, first compound 10 µM
[13] = second compound 0.316 µM, first compound 0.0316 µM
[14] = second compound 0.316 µM, first compound 0.1 µM
[15] = second compound 0.316 µM, first compound 0.316 µM
[16] = second compound 0.316 µM, first compound 1 µM
[17] = second compound 0.316 µM, first compound 3.16 µM
[18] = second compound 0.316 µM, first compound 10 µM
[19] = second compound 1 µM, first compound 0.0316 µM
[20] = second compound 1 µM, first compound 0.1 µM
[21] = second compound 1 µM, first compound 0.316 µM
[22] = second compound 1 µM, first compound 1 µM
[23] = second compound 1 µM, first compound 3.16 µM
[24] = second compound 1 µM, first compound 10 µM
[25] = second compound 3.16 µM, first compound 0.0316 µM
[26] = second compound 3.16 µM, first compound 0.1 µM
[27] = second compound 3.16 µM, first compound 0.316 µM
[28] = second compound 3.16 µM, first compound 1 µM
[29] = second compound 3.16 µM, first compound 3.16 µM
[30] = second compound 3.16 µM, first compound 10 µM
[31] = second compound 10 µM, first compound 0.0316 µM
[32] = second compound 10 µM, first compound 0.1 µM
[33] = second compound 10 µM, first compound 0.316 µM
[34] = second compound 10 µM, first compound 1 µM
[35] = second compound 10 µM, first compound 3.16 µM
[36] = second compound 10 µM, first compound 10 µM
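Further: viability read after seven days of drug exposure.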
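Wherever viability, T/C is given: luminescence signal used as a proxy for viable cells; 100% = DMSO vehicle control wells.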

IC50 (second compound 0.0316 µM): < 31.6 nM
IC50 (second compound 0.1 µM): < 31.6 nM
IC50 (second compound 0.316 µM): < 31.6 nM
IC50 (second compound 1 µM): < 31.6 nM
IC50 (second compound 3.16 µM): < 31.6 nM
IC50 (second compound 10 µM): < 31.6 nM
Structure (SMILES): CC1COCCN1c1cc(-c2ccnn2C)c2ccnc(-c3ccn[nH]3)c2n1 (stereo not drawn) + Cc1cnc(CNC(=O)c2c(=O)c3ccc(N4CCCN(C)CC4)nc3n3c2sc2ccccc23)cn1
viability, T/C [1]: 31.9%
viability, T/C [2]: 20.2%
viability, T/C [3]: 18.4%
viability, T/C [4]: 9.61%
viability, T/C [5]: 5.71%
viability, T/C [6]: 3.77%
viability, T/C [7]: 22.7%
viability, T/C [8]: 19.2%
viability, T/C [9]: 17.2%
viability, T/C [10]: 11.2%
viability, T/C [11]: 6.18%
viability, T/C [12]: 3.47%
viability, T/C [13]: 15.1%
viability, T/C [14]: 19.7%
viability, T/C [15]: 17.7%
viability, T/C [16]: 12.5%
viability, T/C [17]: 6.51%
viability, T/C [18]: 2.82%
viability, T/C [19]: 17.9%
viability, T/C [20]: 18.9%
viability, T/C [21]: 15.6%
viability, T/C [22]: 14.7%
viability, T/C [23]: 7.08%
viability, T/C [24]: 3.42%
viability, T/C [25]: 18.9%
viability, T/C [26]: 17.4%
viability, T/C [27]: 16.8%
viability, T/C [28]: 14%
viability, T/C [29]: 7.38%
viability, T/C [30]: 3.36%
viability, T/C [31]: 16.8%
viability, T/C [32]: 16.6%
viability, T/C [33]: 17.2%
viability, T/C [34]: 10.1%
viability, T/C [35]: 6.54%
viability, T/C [36]: 3.1%

Structure (SMILES): CC(C)(O)C1CCC(Nc2ccc3ncc(-c4cccc(C(F)(F)F)c4)n3n2)CC1 (stereo not drawn) + CN(C)c1ccc(Nc2c3ccc(NC(=O)CCN4CCCC4)cc3nc3cc(NC(=O)CCN4CCCC4)ccc23)cc1
IC50 (second compound 0.0316 µM): 2080 nM
IC50 (second compound 0.1 µM): 1450 nM
IC50 (second compound 0.316 µM): 1580 nM
IC50 (second compound 1 µM): 1520 nM
IC50 (second compound 3.16 µM): < 31.6 nM
IC50 (second compound 10 µM): < 31.6 nM
viability, T/C [1]: 107%
viability, T/C [2]: 82%
viability, T/C [3]: 104%
viability, T/C [4]: 77.6%
viability, T/C [5]: 34.6%
viability, T/C [6]: 33.8%
viability, T/C [7]: 83.9%
viability, T/C [8]: 59.2%
viability, T/C [9]: 109%
viability, T/C [10]: 57.8%
viability, T/C [11]: 30%
viability, T/C [12]: 37.2%
viability, T/C [13]: 69.3%
viability, T/C [14]: 57.9%
viability, T/C [15]: 96.7%
viability, T/C [16]: 63.6%
viability, T/C [17]: 30.6%
viability, T/C [18]: 28.1%
viability, T/C [19]: 77.2%
viability, T/C [20]: 54.1%
viability, T/C [21]: 66.5%
viability, T/C [22]: 63.6%
viability, T/C [23]: 26.4%
viability, T/C [24]: 22.2%
viability, T/C [25]: 41.3%
viability, T/C [26]: 46.2%
viability, T/C [27]: 40.6%
viability, T/C [28]: 33.5%
viability, T/C [29]: 15.8%
viability, T/C [30]: 9.06%
viability, T/C [31]: 5.85%
viability, T/C [32]: 5.51%
viability, T/C [33]: 5.56%
viability, T/C [34]: 4.55%
viability, T/C [35]: 1.2%
viability, T/C [36]: 0.47%

IC50 (second compound 0.0316 µM): < 31.6 nM
IC50 (second compound 0.1 µM): < 31.6 nM
IC50 (second compound 0.316 µM): < 31.6 nM
IC50 (second compound 1 µM): < 31.6 nM
IC50 (second compound 3.16 µM): < 31.6 nM
IC50 (second compound 10 µM): < 31.6 nM
Structure (SMILES): COc1ccc([C@@H](O)c2cc(-c3ncnc4cc(N5CCOCC5)ccc34)c(F)cc2Cl)nn1 + Cc1cnc(CNC(=O)c2c(=O)c3ccc(N4CCCN(C)CC4)nc3n3c2sc2ccccc23)cn1
viability, T/C [1]: 47.1%
viability, T/C [2]: 42.8%
viability, T/C [3]: 20%
viability, T/C [4]: 10.8%
viability, T/C [5]: 9.47%
viability, T/C [6]: 9.92%
viability, T/C [7]: 30.6%
viability, T/C [8]: 22%
viability, T/C [9]: 15.2%
viability, T/C [10]: 12.2%
viability, T/C [11]: 13.5%
viability, T/C [12]: 11.6%
viability, T/C [13]: 22.8%
viability, T/C [14]: 21.2%
viability, T/C [15]: 13%
viability, T/C [16]: 13.2%
viability, T/C [17]: 13.6%
viability, T/C [18]: 12.8%
viability, T/C [19]: 18.2%
viability, T/C [20]: 18.3%
viability, T/C [21]: 13.8%
viability, T/C [22]: 15.4%
viability, T/C [23]: 14.1%
viability, T/C [24]: 10.8%
viability, T/C [25]: 20.3%
viability, T/C [26]: 17.9%
viability, T/C [27]: 18%
viability, T/C [28]: 16.1%
viability, T/C [29]: 16.6%
viability, T/C [30]: 13.6%
viability, T/C [31]: 19.5%
viability, T/C [32]: 21.2%
viability, T/C [33]: 19.6%
viability, T/C [34]: 18.5%
viability, T/C [35]: 16.5%
viability, T/C [36]: 14.5%

IC50 (second compound 0.0316 µM): < 31.6 nM
IC50 (second compound 0.1 µM): < 31.6 nM
IC50 (second compound 0.316 µM): < 31.6 nM
IC50 (second compound 1 µM): < 31.6 nM
IC50 (second compound 3.16 µM): < 31.6 nM
IC50 (second compound 10 µM): < 31.6 nM
Structure (SMILES): COc1cc(C2c3cc4c(cc3C(OC3OC5COC(C)OC5C(O)C3O)C3COC(=O)C23)OCO4)cc(OC)c1O (stereo not drawn) + Cc1cnc(CNC(=O)c2c(=O)c3ccc(N4CCCN(C)CC4)nc3n3c2sc2ccccc23)cn1
viability, T/C [1]: 28.9%
viability, T/C [2]: 21.4%
viability, T/C [3]: 18.5%
viability, T/C [4]: 14.2%
viability, T/C [5]: 13.7%
viability, T/C [6]: 10.5%
viability, T/C [7]: 25.8%
viability, T/C [8]: 22.7%
viability, T/C [9]: 18.6%
viability, T/C [10]: 13.6%
viability, T/C [11]: 16.5%
viability, T/C [12]: 12.9%
viability, T/C [13]: 22.2%
viability, T/C [14]: 21.3%
viability, T/C [15]: 17.8%
viability, T/C [16]: 16.4%
viability, T/C [17]: 17%
viability, T/C [18]: 13.2%
viability, T/C [19]: 21.5%
viability, T/C [20]: 19.1%
viability, T/C [21]: 17.6%
viability, T/C [22]: 18.9%
viability, T/C [23]: 17.8%
viability, T/C [24]: 12.5%
viability, T/C [25]: 19.3%
viability, T/C [26]: 16.4%
viability, T/C [27]: 19.6%
viability, T/C [28]: 19.2%
viability, T/C [29]: 18.2%
viability, T/C [30]: 13.4%
viability, T/C [31]: 17.8%
viability, T/C [32]: 18.5%
viability, T/C [33]: 19.4%
viability, T/C [34]: 19.2%
viability, T/C [35]: 17.7%
viability, T/C [36]: 12.3%
